Data taken from ChEMBL document CHEMBL5149970 (J Med Chem, 2021).

Assay: Antiproliferative activity against human EU-1 cells assessed as inhibition of cell growth incubated for 48 hrs by WST assay
Type: functional, cell-based
Conditions: EU-1, 48 h

| SMILES | IC50 |
| --- | --- |
| Cc1ccc(N(C)S(=O)(=O)c2ccc3c(c2)C2OCCC2C(c2ccc(C(=O)C(C)C)cc2)N3C)cc1C (stereo not drawn) | 1.2 µM |
| Cc1ccc(NS(=O)(=O)c2ccc3c(c2)C2NCCC2C(c2ccc(C(=O)O)cc2)N3)cc1C (stereo not drawn) | > 50 µM |
| Cc1ccc(NS(=O)(=O)c2ccc3c(c2)C2NCCC2C(c2ccc(C(=O)C(C)C)cc2)N3)cc1C (stereo not drawn) | 3.8 µM |
| Cc1ccc(NS(=O)(=O)c2ccc3c(c2)[C@@H]2OCC[C@@H]2[C@H](c2ccc(C(=O)C(C)C)cc2)N3)cc1C | 1.6 µM |
| COC(=O)c1ccc(C2Nc3ccc(S(=O)(=O)Nc4ccc(C)c(C)c4)cc3C3NCCC23)cc1 (stereo not drawn) | 3.5 µM |
| COC(=O)c1ccc(C2Nc3ccc(S(=O)(=O)Nc4ccc(C)c(C)c4)cc3C3C=CCC32)cc1 (stereo not drawn) | 4.7 µM |
| C=CC(=O)c1ccc(C2Nc3ccc(S(=O)(=O)Nc4ccc(C)c(C)c4)cc3C3OCCC23)cc1 (stereo not drawn) | 30 µM |
| Cc1ccc(N(C)S(=O)(=O)c2ccc3c(c2)C2OCCC2C(c2ccc(C(=O)C(C)C)cc2)N3)cc1C (stereo not drawn) | 1.6 µM |
| Cc1ccc(NS(=O)(=O)c2ccc3c(c2Cl)C2C=CCC2C(c2ccc(S(C)(=O)=O)cc2)N3)cc1C (stereo not drawn) | 23.4 µM |
| Cc1ccc(NS(=O)(=O)c2ccc3c(c2)C2OCCCC2C(c2ccc(C(=O)O)cc2)N3)cc1C (stereo not drawn) | > 50 µM |
| Cc1cccc(NS(=O)(=O)c2ccc3c(c2)C2OCCC2C(c2ccc(C(=O)C(C)C)cc2)N3)c1 (stereo not drawn) | 1.4 µM |
| Cc1ccc(NS(=O)(=O)c2ccc3c(c2)C2OCCC2C(c2ccc(C(=O)O)cc2)N3)cc1C (stereo not drawn) | > 50 µM |
| CC(C)C(=O)c1ccc(C2Nc3ccc(S(=O)(=O)Nc4ccccc4)cc3C3OCCC23)cc1 (stereo not drawn) | 3.2 µM |
| Cc1ccc(NS(=O)(=O)c2ccc3c(c2)C2OCCC2C(c2ccc(C(=O)C(C)C)cc2)N3)cc1 (stereo not drawn) | 3.3 µM |
| Cc1ccc(NS(=O)(=O)c2ccc3c(c2)C2OCCC2C(c2ccc(C(=O)c4ccccc4)cc2)N3)cc1C (stereo not drawn) | 3.2 µM |
| CCCC(=O)c1ccc(C2Nc3ccc(S(=O)(=O)Nc4ccc(C)c(C)c4)cc3C3OCCC23)cc1 (stereo not drawn) | 2.9 µM |
| Cc1ccc(NS(=O)(=O)c2cc3c(cc2Cl)NC(c2ccc(S(C)(=O)=O)cc2)C2CC=CC32)cc1C (stereo not drawn) | > 50 µM |

| SMILES | IC50 |
| --- | --- |
| COC(=O)c1ccc(C2Nc3c(Cl)cc(S(=O)(=O)Nc4ccc(C)c(C)c4)cc3C3OCCC23)cc1 (stereo not drawn) | > 50 µM |
| Cc1ccc(NS(=O)(=O)c2ccc3c(c2)C2OCCC2C(c2ccc(Br)cc2)N3)cc1C (stereo not drawn) | 3.6 µM |
| Cc1ccc(NS(=O)(=O)c2ccc3c(c2)C2OCCC2C(c2cccc4ccccc24)N3)cc1C (stereo not drawn) | 6.1 µM |
| Cc1ccc(NS(=O)(=O)c2ccc3c(c2)C2OCCC2C(c2cccc(C(=O)C(C)C)c2)N3)cc1C (stereo not drawn) | 3.6 µM |
| CC(=O)c1ccc(C2Nc3ccc(S(=O)(=O)Nc4ccc(C)c(C)c4)cc3C3OCCC23)cc1 (stereo not drawn) | 0.5 µM |
| Cc1ccc(NS(=O)(=O)c2ccc3c(c2)[C@@H]2OCC[C@@H]2[C@@H](c2ccc(C(=O)C(C)C)cc2)N3)cc1C | 1.9 µM |
| CC(=O)c1cccc(C2Nc3ccc(S(=O)(=O)Nc4ccc(C)c(C)c4)cc3C3OCCC23)c1 (stereo not drawn) | 2 µM |
| Cc1cc(NS(=O)(=O)c2ccc3c(c2)C2OCCC2C(c2ccc(C(=O)C(C)C)cc2)N3)ccc1C(F)(F)F (stereo not drawn) | 7.2 µM |
| Cc1ccc(NS(=O)(=O)c2ccc3c(c2)C2c4ccccc4CC2C(c2ccc(C(=O)O)cc2)N3)cc1C (stereo not drawn) | 20.5 µM |
| COC(=O)c1ccc(C2Nc3ccc(S(=O)(=O)Nc4ccc(C)c(C)c4)cc3C3OCCCC23)cc1 (stereo not drawn) | 4.6 µM |
| Cc1ccc(NS(=O)(=O)c2ccc3c(c2)C2OCCC2C(c2ccc(C(C)C)cc2)N3)cc1C (stereo not drawn) | 4.2 µM |
| Cc1cc(NS(=O)(=O)c2ccc3c(c2)C2OCCC2C(c2ccc(C(=O)C(C)C)cc2)N3)ccc1F (stereo not drawn) | 2.9 µM |
| COC(=O)c1ccc(C2Nc3ccc(S(=O)(=O)Nc4ccc(C)c(C)c4)cc3C3OCCC23)cc1 (stereo not drawn) | 2.2 µM |
| COC(=O)c1ccc(C2Nc3cc(Cl)c(S(=O)(=O)Nc4ccc(C)c(C)c4)cc3C3OCCC23)cc1 (stereo not drawn) | > 50 µM |
| Cc1ccc(NS(=O)(=O)c2ccc3c(c2)C2CCCC2C(c2ccc(C(=O)C(C)C)cc2)N3)cc1C (stereo not drawn) | 7 µM |
| CC(C)C(=O)c1ccc(C2Nc3ccc(S(=O)(=O)Nc4ccc(Cl)c(Cl)c4)cc3C3OCCC23)cc1 (stereo not drawn) | 5.6 µM |
